Legend:
Caco2 cell line = experiment: In vitro cell compatibility, MTT method; assay type: cell-based; conditions: crosslinker, versus only-medium control (100% viability)
Procedure: Since these polymeric micelles are envisioned for the administration by mucosal routes, including the oral one, their cell compatibility before and after corona-crosslinking was evaluated in a Caco2 cell line (ATCC® HTB-37™) obtained from American Type Culture Collection (ATCC®, Manassas, Va., USA).
In exemplary embodiments, cells were cultured in Eagle's Minimum Essential Medium (EMEM, Life Technologies Corp., Carlsbad, Calif., USA) supplemented with L-glutamine, 10% heat-inactivated fetal bovine serum (FBS, Sigma-Aldrich) and penicillin/streptomycin (5 mL of a commercial mixture of 100 U/mL of penicillin+100 μg/mL streptomycin per 500 mL medium, Sigma-Aldrich) and maintained at 37° C. in a humidified 5% CO2 atmosphere and split 1:10 into fresh media every three-four days. Cells were harvested by trypsinization (trypsin-EDTA 0.25%, Sigma-Aldrich) and the number of live cells was quantified the trypan blue (1%, Sigma-Aldrich) exclusion assay and a Neubauer chamber. To determine the compatibility of the polymeric micelles (expressed as percentage with respect to a blank incubated with culture medium), cells were cultured in 96-well plates (5×10^3 cells/well) and allowed to attach over 72 h. The medium in each well was replaced by different samples (concentration between 0.1%, 0.3% and 0.5% in PBS+medium) and cells incubated over 4 and 24 h. […]

[1] = Encapsulation of efavirenz in polymeric micelles (apparent solubility, solubility factor); assay type: physicochemical; conditions: 37° C.
Procedure: The encapsulation capacity of the micelles was studied with the antiretroviral efavirenz. For this, 1%, 3%, 5% and 10% w/v CS-N52 and 1% CS-N74 polymeric micelles were prepared and 2-10 mg of drug per mL of micellar suspension added. The suspension was magnetically stirred at 37° C. (48 h), filtered (1.2 μm, Minisart® NML cellulose acetate, Sartorius AG, Goettingen, Germany) to remove insoluble drug, the filtrate diluted (1/10) in distilled water and 10 mL extracted with dichloromethane (3×20 mL). The organic solution was evaporated under vacuum, re-dissolved in methanol and the absorbance measured in microplate spectrophotometer (λ=248 nm). Then, the EFV concentration was calculated by interpolation in a calibration curve in the range of 0.02-80 μg/mL (R^2>0.9999). Finally, the solubility factor (fs) was determined according to
where Sa is the apparent solubility of active agent (herein: efavirenz) in the polymeric micelles and Si is the intrinsic solubility of the active agent (efavirenz) in a polymer-free medium (7 μg/mL), at 37° C. Measurements were performed in triplicate and the results are expressed as the mean±S.D. Efavirenz-loaded micelles before and after ionotropic crosslinking were characterized for Dh, PDI and Z-potential by DLS (see above).

| SMILES | viability of Caco2 cells (MTT) (Caco2 cell line) | Si (intrinsic solubility in a polymer-free medium) [1] [µg/mL] |
| --- | --- | --- |
| O=P(O)(O)OP(=O)(O)OP(=O)(O)O [TPP, sodium tripolyphosphate] | did not affect the viability of the cells |  |
| O=C1Nc2ccc(Cl)cc2[C@@](C#CC2CC2)(C(F)(F)F)O1 [efavirenz] |  | 7 |
